Source: patent US7358417B2, “Transgenic organism expressing fungal MRP-like ABC transporters” (priority 2001, dated 2008)
Several values for one entry are separate records, joined by “and”; a condition that tells them apart may be missing. Identical values can stand only once.

Tests used:
[1] = test system: vacuoles of wild-type plants; assay: Accumulation of GS-associated compounds in vacuoles separated from wild-type Arabidopsis
Description: (§1) To Investigate that these phenomena occurred due to the fact that YCF1 proteins transport heavy metals into vacuoles, the vacuoles were separated from YCF1 transformed plants and wild-type plants, and experiments of transporting cadmium and herbicides were carried out.

[2] = test system: vacuoles of YCF1 transformed plants; assay: Accumulation of GS-associated compounds in vacuoles separated from YCF1 transformed Arabidopsis
Description: as §1

[3] = test system: ycf1-pESC yeast, wt-pESC yeast, ycf1-YCF1 yeast; assay: Heavy metal content of recombinant yeasts by atomic absorption spectrometer; assay type: cell-based, Saccharomyces cerevisiae; details: one day
Description: Three kinds of yeasts (ycf1-pESC yeast, wt-pESC yeast, and ycf1-YCF1 yeast) were each cultured in 1/2 galactose solid media containing 1.5 mM lead or 15 uM cadmium for one day, and the cultured yeasts were scraped for harvest. The harvested yeasts were put into 1 ml of concentrated nitric acid, digested for 200° C. for about 6 hours, and then diluted with 10 ml of 0.5 N nitric acid, and the amount of heavy metals contained in the yeasts was measured using an atomic absorption spectrometer (AAS). The measurement results for ycf1-pESC yeast, wt-pESC yeast, and ycf1-YCF1 yeast are represented by graph In FIG. 3.

[4] = test system: YCF1 Arabidopsis plants; assay: Accumulation of heavy metals in transformed Arabidopsis plants; assay type: in vivo, Arabidopsis thaliana; details: three weeks
Description: YCF1 Arabidopsis plants obtained in Example 5 and wild-type Arabidopsis transformed with empty vector, PBI, were cultivated in 1/2 MS media containing lead (0.75 mM) and cadmium (70 μM) for three weeks to investigate accumulation of heavy metals.

[5] = test system: Arabidopsis plants; assay: Growth of Arabidopsis plants in the presence of noxious materials; assay type: in vivo, Arabidopsis thaliana; details: 60 μM pentavalent arsenic three weeks, 60 μM CDNB two months
[6] = test system: yeast; assay: Growth of yeast on lead or cadmium-containing media; assay type: cell-based, Saccharomyces cerevisiae; details: for Growth of ycf1-YCF1 yeast in media containing lead or cadmium: 1.8 mM lead or 50 uM cadmium, galactose media; for Growth of ycf1 mutant yeast as compared with wild-type yeast: 3 mM lead or 0.1 mM cadmium, three days
Description: Wild-type yeast (DTY 165) and ycf1 mutant yeast (DTY 167, MATa ura3 leu2 his3 trp3 lys2 suc2 ycf::hisG) were cultured in YPD liquid media (1% yeast extract, 2% peptone, 2% dextrose) at 30° C. until OD600 reached 1-2, and then yeast cells of the same number (1×10^2, 1×10^3, 1×10^4 or 1×10^5) were cultured in half-diluted YPD solid media containing 3 mM lead at 30° C. for three days. Likewise, they were also cultured in half-diluted YPD solid media containing 0.1 mM cadmium.
The ycf1-pESC yeast, wt-pESC yeast, and ycf1-YCF1 yeast 25 constructed above were each cultured in galactose media (2% galactose, 1% of 0.17% YNB, 0.13% dropout powder, 0.5% ammonium sulfate) to which 1.8 mM lead was added, or in galactose media to which 50 uM of cadmium was added. Control group was cultured in galactose media without heavy metals. Growth degree of each of the recombinant ycf1-pESC yeast, wt-pESC yeast, and ycf1-YCF1 yeast in lead or cadmium-containing media is shown in the photographs of FIG. 2.
Resistance to lead in wt-v yeast, yhl035c-v yeast, and YHL035C yeast was tested according to methods substantially similar to the above Example 3-2.

[7] = test system: poplar; assay: Growth of poplar plants in the presence of lead; assay type: in vivo, Populus alba ×P. glandulosa
Description: The leaf fragments and stalks of YCF1 poplar plants prepared in Example 5 were mounted on callus-inducible media containing 500 ppm of lead, and cultivated for two weeks to Investigate the difference In their growth. As a control, wild-type poplar plants, which were not transformed, were treated in the same manner, and the results of the experiments are shown in FIG. 10.
YHL035C transformed poplar plants prepared in Example 5 were transferred to a pot and allowed to grow into pot seedlings. These pot seedlings were transferred to soil that was dipped into a solution containing 500 ppm of […].

[8] = YCF1 transformed vacuoles, +MgATP

N[C@@H](CCC(=O)N[C@@H](CS)C(=O)NCC(=O)O)C(=O)O [GSH]
Accumulation in the vacuoles, Wild-type Plants, +MgATP [1]: 70 ± 2.2 pmol/1 ul vacuole/20 min | Accumulation in the vacuoles, YCF1 Transformed Plants, +MgATP [2, 8]: 69 ± 1.1 pmol/1 ul vacuole/20 min

[Pb] [lead]
Accumulation of lead in wt-pESC yeast and ycf1-YCF1 yeast relative to ycf1-pESC yeast ([3]; 1.5 mM lead): ~2 fold | Accumulation of lead in YCF1 Arabidopsis plants relative to PBI ([4]; 0.75 mM lead): 2 fold and 1.4 fold | Growth of YCF1 Arabidopsis ([5]; lead three weeks): less chlorosis In leaves and better growth of roots | Sensitivity of yhl035c-v yeast ([6]; 1.8 mM lead): more sensitive than wt-v yeast | Growth of ycf1-YCF1 yeast in media containing lead or cadmium [6]: grew better than ycf1-pESC yeast or wt-pESC yeast | Growth of ycf1 mutant yeast as compared with wild-type yeast [6]: decreased | Growth in stalk pieces of YCF1 poplar relative to wild-type ([7]; 500 ppm of lead, two weeks): ~2 fold | Growth of YHL035C transformant poplar in soil containing lead ([7]; 500 ppm, four weeks): grew much better than the wild-type | Growth of wild-type poplar in soil containing lead ([7]; 500 ppm, four weeks): grew poorly

N[C@@H](CCC(=O)N[C@@H](CSc1ccc([N+](=O)[O-])cc1[N+](=O)[O-])C(=O)NCC(=O)O)C(=O)O [DNB − GS]
Accumulation in the vacuoles, Wild-type Plants, +MgATP [1]: 28 ± 1.3 pmol/1 ul vacuole/20 min | Accumulation in the vacuoles, Wild-type Plants, −MgATP ([1]; −MgATP): 21 ± 1.1 pmol/1 ul vacuole/20 min | Accumulation in YCF1 transformants relative to wild-type (in words) ([2]; +MgATP): a little higher accumulation than wild-type | Accumulation in the vacuoles, YCF1 Transformed Plants, +MgATP [2, 8]: 33 ± 1.2 pmol/1 ul vacuole/20 min | Accumulation in the vacuoles, YCF1 Transformed Plants, −MgATP ([2]; YCF1 transformed vacuoles, −MgATP): 24 ± 0.9 pmol/1 ul vacuole/20 min

[Cd] [cadmium]
Accumulation of cadmium in wt-pESC yeast and ycf1-YCF1 yeast compared with ycf1-pESC yeast ([3]; 15 uM cadmium): high accumulation | Accumulation of cadmium in YCF1 Arabidopsis plants relative to PBI ([4]; 70 μM cadmium): 2 fold and 3 fold | Growth of wild-type Arabidopsis ([5]; cadmium various concentrations): more chlorosis in leaves | Growth of ycf1-YCF1 yeast in media containing lead or cadmium [6]: grew better than ycf1-pESC yeast or wt-pESC yeast | Growth of ycf1 mutant yeast as compared with wild-type yeast [6]: grew little
